Earlier results as cited in patent CN102406622A, “一种托伐普坦的固体制剂” (Zhejiang Huahai Pharmaceutical Co Ltd, priority 2011, dated 2012).

Details: low solubility, low permeability

- BCS class: IV类药
SMILES: Cc1ccccc1C(=O)Nc1ccc(C(=O)N2CCC[C@@H](O)c3cc(Cl)ccc32)c(C)c1 [托伐普坦, N-[4-[(5R)-7-氯-5-羟基-2,3,4,5-四氢-1-苯并氮杂卓-1-甲酰基]-3-甲基苯基]-2-甲基苯甲酰胺]
